According to patent US20060062842A1, “Method of administering a compound to multi-drug resistant cells” (Alza Corporation, priority 1998, published 2006):

Tests used:
M109R-HiFR cells [1] = assay: Fluorescence tracking of doxorubicin in cells; type: cell-based, murine
Method: As described in Example 5, folate-targeted liposomes containing doxorubicin were prepared and incubated with M109R-HiFR cells. For comparison, M109R-HiFR cells were also incubated with free doxorubicin or with liposomes containing doxorubicin but with no folate targeting ligand.
In another study, the ability of the M109R-HiFR cells to retain doxorubicin after treatment for 1 hour with either free doxorubicin or with doxorubicin-loaded folate-targeted liposomes, followed by incubation in drug-free medium for 24 hours was examined.
M109 HIFR cells were plated, 24 hours prior to each study, on 24 mm cover slips inserted into 35 mm culture dishes. […]
Examination of the cells was done with inverted Zeiss confocal laser scanning microscope (LSM410) (Carl Zeiss, Jena, Germany). Maximum excitation was done by 543 nm line of the internal He-neon laser; fluorescence emission was observed above 570 nm with long-pass barrier filter LP-570) for rhodamine. For doxorubicin, maximum excitation was done by 488 nm line of internal Argon laser: fluorescence emission was observed above 515 nm with long pass barrier filter LP-515. […]
M109R-HiFr cells were incubated with free doxorubicin or with doxorubicin entrapped in folate-targeted liposomes at a doxorubicin concentration of 4×10^−5 M. The doxorubicin molecule was tracked using fluorescence.

[2] = system: drug-resistance (M109R) cells; assay: Cell-associated doxorubicin after exposure; type: cell-based, murine; conditions: Drug-Resistant Cells, 0.2×10^-5 M doxorubicin
Method: (§1) The doxorubicin was administered to the cells in free form and entrapped in folate-targeted liposomes. The cell-associated drug was measured after 1 hour and 4 hours of exposure to doxorubicin.

[3] = system: drug-sensitive (M109) cells; assay: Cell-associated doxorubicin after exposure; type: cell-based, murine; conditions: 0.5×10^-6 M doxorubicin
Method: as §1

M109R-HiFR cells [4] = assay: In vivo adoptive tumor growth assay, footpad; design: species or system BALB/c mice
Source text: To examine the biological activity of drug delivered by the folate-pathway from folate-targeted liposomes in another model, M109R-HiFR cells in vitro were exposed to a test drug. These cells were inoculated into mice footpads. In this way, the growth of cells was tracked along a much longer time span than in in vitro experiments, and the influence of in vivo micro-environmental factors is brought into play. However, unlike therapeutic experiments, this type of in vivo adoptive assay is unaffected by pharmacokinetic and biodistribution factors which complicat the interpretation of results.
Accordingly, tumor cells in vitro were incubated with free doxorubicin or with liposome-entrapped, non-folate-targeted doxorubicin (DOXIL®) or with folate-targeted, liposome-entrapped doxorubicin in accord with the invention. As described in Example 9, the tumor cells were incubated in the presence of the selected formulation for 1 hour and then 1×10^6 cells were injected into the footpad of a mouse, each treatment formulation being injected into 8 mice.
At the end of the study on day 34 after injection of the treated tumor cells, the weight of each tumor-bearing mouse footpad was determined and […] to determine the tumor weight in each mouse footpad.
Female 10-week-old BALB/c mice were maintained in a specific pathogen-free facility. M109R-HiFR cells in in vitro suspension (10^7 cells/ml) were exposed to 10^−5M doxorubicin either as free drug, as liposome-entrapped (Doxil®), or as folate-targeted liposome-entrapped […], washed with PBS, and then resuspended at a concentration of 2×10^7 cells. Healthy, syngeneic BALB/c mice were injected into the right hind footpad with 50 μl (10^6 cells). The footpad thickness was measured with calipers once or twice a week for 5 weeks. After 35 days, mice were sacrificed, the final number of tumors recorded, and the control and tumor-inoculated footpads were sectioned at the ankle level and weighed. Tumor weight was estimated as the difference between the weight of the normal and tumor-bearing footpad. The statistical significance of differences in the final incidence of tumors per group was analyzed by contingency tables and the Fisher's exact test.

tumor cells = assay: Adoptive tumor growth assay, subcutaneous injection; type: in vivo, mice; conditions: treated tumor cells injected subcutaneously (FIG. 16)
Source text: FIG. 16 is a plot showing the number of palpable tumors after subcutaneous injection of untreated (control, open circles) or in vitro treated tumor cells with free doxorubicin (closed circles), doxorubicin entrapped in non-targeted liposomes (open squares) and doxorubicin entrapped in folate-targeted liposomes (closed triangles).

M109R cells = assay: Multidrug-resistance of M109R subline; type: cell-based, murine
Source text: (i) Cell lines: M109, a murine lung carcinoma line of BALB/c mice (Marks, T. A. et al., Cancer Treat. Rep., 61:1459-1470 ([…])), and a subline of these cells, M109R displaying multidrug-resistance, (approximately 100 fold increased resistance to doxorubicin) were used in most of the studies. Both cell lines express in vitro low amounts of folic acid receptors and are therefore referred to as M109-LoFR and M109R-LoFR. By culturing these cells in folic acid-free medium for several passages, two sublines expressing a high amount of folic acid receptors were obtained. These sublines were adapted to grow under low folic acid conditions with generation doubling times similar to the lines of origin.

M109R-HiFR cells [5] = assay: Verapamil blockade of efflux pump and doxorubicin delivery; conditions: for Intracellular Doxorubicin Content: 0.5×10^-5 M doxorubicin, verapamil 10 μmol where named
M109-LoFR cells = assay: Folic acid binding to cell lines; design: species or system murine; conditions: incubation 30 min at 37° C.
Method: (§2) These cell lines and their capacity to bind folic acid were determine as set forth in Example 2B, by incubating the cells for 30 minutes with folic acid at 37° C.
(§3) Radioactivity was determined by liquid scintillation counting.

M109R-LoFR cells = assay: Folic acid binding to cell lines; design: species or system murine; conditions: incubation 30 min at 37° C.
Method: as §2, §3

Human Melanoma line A375 = assay: Folic acid binding to cell lines; conditions: 30 min at 37° C.
Method: as §2, §3

[6] = system: Murine Lung Carcinoma High Folate Receptor cells; assay: Folic acid binding to cell lines; conditions: Murine Lung Carcinoma High Folate Receptor (printed M109R-HiFR); 30 min at 37° C.
Method: as §2, §3

Normal Human Fibroblasts = assay: Folic acid binding to cell lines; conditions: NHF; 30 min at 37° C.
Method: as §2, §3

KB-HiFR cells = assay: Folic acid binding to cell lines; design: species or system human
Method: as §2, §3

KB-LoFR cells = assay: Folic acid binding to cell lines; design: species or system human
Method: as §2, §3

M109R-HiFR cells [7] = assay: Folic acid binding to cell lines
[8] = cells exposed in vitro to 10^-5 M doxorubicin, 5 weeks follow-up

COc1cccc2c1C(=O)c1c(O)c3c(c(O)c1C2=O)C[C@@](O)(C(=O)CO)C[C@@H]3O[C@H]1C[C@H](N)[C@H](O)[C@H](C)O1 [Free Doxorubicin, doxorubicin]
doxorubicin fluorescence retained in cells (M109R-HiFR cells [1]; 1 hour treatment, then 24 hours in drug-free medium (FIGS. 10C-10D)): almost completely waned | time at which drug is located in the nucleus (M109R-HiFR cells [1]; doxorubicin 4×10^-5 M (FIGS. 9B, 9E)): ≤ 30 min | Percent doxorubicin administered remaining in cells ([2]; exposure 1 hour): 5.5% | intracellular doxorubicin ([2]; exposure 1 hour): 159 ng/1.5 × 10^6 cells | Percent doxorubicin administered remaining in cells ([2]; exposure 4 hours): 4.2% | intracellular doxorubicin ([2]; exposure 4 hours): 122 ng/1.5 × 10^6 cells | Percent doxorubicin administered remaining in cells ([3]; exposure 1 hour): 8.6% | intracellular doxorubicin ([3]; exposure 1 hour): 25 ng/1.5 × 10^6 cells | Percent doxorubicin administered remaining in cells ([3]; exposure 4 hours): 12.4% | intracellular doxorubicin ([3]; exposure 4 hours): 36.1 ng/1.5 × 10^6 cells | Final Tumor Incidence (%) (M109R-HiFR cells [4]; [8]): 42% | Final Tumor Incidence (tumors/mice) (M109R-HiFR cells [4]; [8]): 8/19 | Median Tumor weight (range) (M109R-HiFR cells [4]; footpad tumor weight at end of study): 239 (32-683) mg | footpad thickness (M109R-HiFR cells [4]; tumor cells treated in vitro, 10^6 cells injected into footpad (FIG. 15A)): increase in footpad thickness | number of palpable tumors (tumor cells): significant number of tumors | increased resistance of M109R versus M109 (M109R cells): approximately 100 fold | cell fluorescence by flow cytometry in presence of verapamil (M109R-HiFR cells [5]; FIGS. 11A-11B): clear increase of cell fluorescence | Intracellular Doxorubicin Content (M109R-HiFR cells [5]; exposure time 30 minutes): 24 ng/1.5 × 10^6 cells | Intracellular Doxorubicin Content (M109R-HiFR cells [5]; exposure time 60 minutes): 42.5 ng/1.5 × 10^6 cells | cell retention of doxorubicin in presence versus absence of verapamil (M109R-HiFR cells [5]; verapamil 10 μmol): ~4.5 fold

Nc1nc2ncc(CNc3ccc(C(=O)N[C@@H](CCC(=O)O)C(=O)O)cc3)nc2c(=O)[nH]1 [folic acid]
FOLIC ACID BINDING (M109-LoFR cells; M109-LoFR after culture in folic acid-depleted medium for 24 h): 25 ± 13 FENTOMOLES/10^4 CELLS | FOLIC ACID BINDING (M109-LoFR cells; M109-LoFR): 20 ± 6 FENTOMOLES/10^4 CELLS | FOLIC ACID BINDING (M109R-LoFR cells): 27 ± 10 FENTOMOLES/10^4 CELLS | FOLIC ACID BINDING (Human Melanoma line A375): 168 ± 33 FENTOMOLES/10^4 CELLS | FOLIC ACID BINDING [6]: 678 ± 255 FENTOMOLES/10^4 CELLS | FOLIC ACID BINDING (Normal Human Fibroblasts): 45 ± 3 FENTOMOLES/10^4 CELLS | difference in folic acid binding capacity (KB-HiFR cells; KB-HiFR (highest) compared with M109-LoFR (lowest)): up to 485 fold | FOLIC ACID BINDING (KB-HiFR cells; KB-HiFR, 30 min at 37° C.): 9730 ± 79 FENTOMOLES/10^4 CELLS | increase in folic acid binding (KB-LoFR cells; KB-LoFR after 24 hours in folic acid-depleted medium): 15 fold | FOLIC ACID BINDING (KB-LoFR cells; KB-LoFR after culture in folic acid-depleted medium for 24 h, 30 min at 37° C.): 6725 ± 323 FENTOMOLES/10^4 CELLS | FOLIC ACID BINDING (M109R-HiFR cells [7]; Multidrug-resistant High Folate Receptor M109R-HiFR, 30 min at 37° C.): 2179 ± 430 FENTOMOLES/10^4 CELLS | folic acid remaining bound following acid wash (M109R-HiFR cells [7]; acid wash pH 3, binding at ~1° C. for 30 min): 2±1% | loss of folic acid receptors shown by binding assay with folic acid (M109R-HiFR cells [7]; monolayers pretreated with PI-PLC): 99% | cell-bound radiolabeled folic acid recovered after trypsinization (M109R-HiFR cells [7]; trypsin treatment): 91±11%
